Assay results: ChEMBL document CHEMBL1201862, “PubChem BioAssay data set” (2004)
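1) Cells in 96-well plates. 2) Compound, 48 h, 5 concentrations. 3) Linear interpolation between surrounding doses. 4) Unreached endpoint = highest concentration. GI50 = concentration required for 50% inhibition of growth.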 The source made the active and inactive calls. No stated cut-off is given here; in the data, active = GI50 up to about 1.1 µM and inactive = higher.

How the values were obtained:
Test in all cases: NCI anticancer screen, dose series, 48 h
NCI-H522 = test system: NCI-H522
UACC-62 = test system: UACC-62
COLO 205 = test system: COLO 205
HCC 2998 = test system: HCC 2998
NCI-H226 = test system: NCI-H226
SN12C = test system: SN12C
A498 = test system: A498
A549 = test system: A549
HOP-62 = test system: HOP-62
HOP-92 = test system: HOP-92
DU-145 = test system: DU-145
RXF 393 = test system: RXF 393
SK-OV-3 = test system: SK-OV-3
MDA-N = test system: MDA-N
HL-60 = test system: HL-60
NCI/ADR-RES = test system: NCI/ADR-RES
Hs-578T = test system: Hs-578T
OVCAR-3 = test system: OVCAR-3
MDA-MB-435 = test system: MDA-MB-435
XF498 = test system: XF498

Row | Structure (SMILES) | GI50 (NCI-H522) | GI50 (UACC-62) | GI50 (COLO 205) | GI50 (HCC 2998) | GI50 (NCI-H226) | GI50 (SN12C) | GI50 (A498) | GI50 (A549) | GI50 (HOP-62) | GI50 (HOP-92) | GI50 (DU-145) | GI50 (RXF 393) | GI50 (SK-OV-3) | GI50 (MDA-N) | GI50 (HL-60) | GI50 (NCI/ADR-RES) | GI50 (Hs-578T) | GI50 (OVCAR-3) | GI50 (MDA-MB-435) | GI50 (XF498)
1 | CC[N+](CC)(CCNCC(N)=O)CC(N)=O | > 10 µM (inactive) | > 10 µM (inactive) | > 10 µM (inactive) | > 10 µM (inactive) | > 10 µM (inactive) | > 10 µM (inactive) | > 10 µM (inactive) | > 10 µM (inactive) | > 10 µM (inactive) | > 10 µM (inactive) | > 10 µM (inactive) | > 10 µM (inactive) | > 10 µM (inactive) | > 10 µM (inactive) | > 10 µM (inactive) | > 10 µM (inactive) | > 10 µM (inactive) | > 10 µM (inactive) | > 10 µM (inactive) | –
2 | N#Cc1c(-c2ccc(Cl)cc2)c2c([nH]c1=O)-c1cc([N+](=O)[O-])ccc1CCC2 | 13.3 µM (inactive) | 13.5 µM (inactive) | 19.1 µM (inactive) | 16.9 µM (inactive) | 17.1 µM (inactive) | 17.2 µM (inactive) | 16.1 µM (inactive) | 18.8 µM (inactive) | 20.3 µM (inactive) | 14.4 µM (inactive) | 35.8 µM (inactive) | 16.1 µM (inactive) | 28.7 µM (inactive) | 26.7 µM (inactive) | 20 µM (inactive) | 20.8 µM (inactive) | 25.2 µM (inactive) | 12.8 µM (inactive) | 29.9 µM (inactive) | –
3 | Cc1ccc(C2=Nc3c(c(C)nn3-c3ccccc3)N=C(C(=O)O)C2)cc1 | > 10 µM (inactive) | > 10 µM (inactive) | > 10 µM (inactive) | > 10 µM (inactive) | > 10 µM (inactive) | > 10 µM (inactive) | > 10 µM (inactive) | > 10 µM (inactive) | > 10 µM (inactive) | > 10 µM (inactive) | > 10 µM (inactive) | > 10 µM (inactive) | > 10 µM (inactive) | > 10 µM (inactive) | > 10 µM (inactive) | > 10 µM (inactive) | > 10 µM (inactive) | > 10 µM (inactive) | > 10 µM (inactive) | –
4 | COc1ccc(COCC[C@H](C)OC2OC(CO[Si](C)(C)C(C)(C)C)C(O)C(O)C2O)cc1 (some centres undefined) | > 100 µM (inactive) | > 100 µM (inactive) | > 100 µM (inactive) | > 100 µM (inactive) | > 100 µM (inactive) | > 100 µM (inactive) | > 100 µM (inactive) | > 100 µM (inactive) | > 100 µM (inactive) | > 100 µM (inactive) | > 100 µM (inactive) | > 100 µM (inactive) | > 100 µM (inactive) | > 100 µM (inactive) | > 100 µM (inactive) | > 100 µM (inactive) | > 100 µM (inactive) | > 100 µM (inactive) | > 100 µM (inactive) | –
5 | COC(=O)c1sc2c(c1C(=O)OC)/C(=N/c1ccc(OC)cc1)S/C2=N\c1ccc(OC)cc1 | 0.541 µM (active) | 1.45 µM (inactive) | 0.7 µM (active) | 1.69 µM (inactive) | 1.74 µM (inactive) | 0.644 µM (active) | 1.65 µM (inactive) | 1.31 µM (inactive) | 0.789 µM (active) | 1.51 µM (inactive) | 0.525 µM (active) | 0.47 µM (active) | 1.69 µM (inactive) | 1.15 µM (inactive) | 0.245 µM (active) | 1.71 µM (inactive) | 1.5 µM (inactive) | 0.611 µM (active) | 0.785 µM (active) | –
6 | COC(=O)c1cc2ccc(OC(C)=O)c(OC(C)=O)c2cn1 | 17.4 µM (inactive) | 2.09 µM (inactive) | 18.7 µM (inactive) | 20.8 µM (inactive) | 22.9 µM (inactive) | 3.11 µM (inactive) | 14 µM (inactive) | 21.2 µM (inactive) | 25.5 µM (inactive) | 17.1 µM (inactive) | 24.7 µM (inactive) | 17.4 µM (inactive) | 19.4 µM (inactive) | 1.5 µM (inactive) | 2.72 µM (inactive) | 6.5 µM (inactive) | > 10 µM (inactive) | 13 µM (inactive) | 1.73 µM (inactive) | –
7 | O=C(O)CC1NCc2cc3ccccc3nc21 (centres undefined) | > 100 µM (inactive) | > 100 µM (inactive) | > 100 µM (inactive) | > 100 µM (inactive) | > 100 µM (inactive) | > 100 µM (inactive) | > 100 µM (inactive) | > 100 µM (inactive) | > 100 µM (inactive) | > 100 µM (inactive) | > 100 µM (inactive) | > 100 µM (inactive) | > 100 µM (inactive) | > 100 µM (inactive) | > 100 µM (inactive) | > 100 µM (inactive) | > 100 µM (inactive) | > 100 µM (inactive) | > 100 µM (inactive) | –
8 | CC(C)C(N)(C(=O)O)c1ccccc1 (centres undefined) | > 100 µM (inactive) | > 100 µM (inactive) | > 100 µM (inactive) | > 100 µM (inactive) | > 100 µM (inactive) | > 100 µM (inactive) | > 100 µM (inactive) | > 100 µM (inactive) | > 100 µM (inactive) | > 100 µM (inactive) | > 100 µM (inactive) | > 100 µM (inactive) | > 100 µM (inactive) | > 100 µM (inactive) | > 100 µM (inactive) | > 100 µM (inactive) | > 100 µM (inactive) | > 100 µM (inactive) | > 100 µM (inactive) | –
9 | O=C(CC(NC(=O)C(F)(F)F)C(=O)O)OCc1ccccc1 (centres undefined) | > 100 µM (inactive) | > 100 µM (inactive) | > 100 µM (inactive) | > 100 µM (inactive) | > 100 µM (inactive) | > 100 µM (inactive) | > 100 µM (inactive) | > 100 µM (inactive) | > 100 µM (inactive) | > 100 µM (inactive) | > 100 µM (inactive) | > 100 µM (inactive) | > 100 µM (inactive) | > 100 µM (inactive) | > 100 µM (inactive) | > 100 µM (inactive) | > 100 µM (inactive) | > 100 µM (inactive) | > 100 µM (inactive) | –
10 | O=[N+]([O-])c1ccc2c(c1)N=C1OC(c3c[nH]c4ccc(COc5ccccc5)cc34)C(O)=C1N2 (centres undefined) | 17.3 µM (inactive) | 52 µM (inactive) | 23.2 µM (inactive) | 21.2 µM (inactive) | > 100 µM (inactive) | > 100 µM (inactive) | > 100 µM (inactive) | > 100 µM (inactive) | 60.3 µM (inactive) | > 100 µM (inactive) | > 100 µM (inactive) | > 100 µM (inactive) | 98.9 µM (inactive) | > 100 µM (inactive) | 1.74 µM (inactive) | > 100 µM (inactive) | > 100 µM (inactive) | > 100 µM (inactive) | > 100 µM (inactive) | –
11 | CCc1cc(C(=O)OC)cn1C(=N)c1ccc(Cl)cc1 | – | > 100 µM (inactive) | > 100 µM (inactive) | > 100 µM (inactive) | > 100 µM (inactive) | > 100 µM (inactive) | > 100 µM (inactive) | > 100 µM (inactive) | > 100 µM (inactive) | > 100 µM (inactive) | – | – | > 100 µM (inactive) | – | > 100 µM (inactive) | – | – | > 100 µM (inactive) | – | > 100 µM (inactive)
12 | O=C1c2c(O)cccc2C(C(=O)CCCCCC(=O)C2c3cccc(O)c3C(=O)c3c(O)cccc32)c2cccc(O)c21 | 0.638 µM (active) | 1.12 µM (active) | 1.98 µM (inactive) | 2.27 µM (inactive) | 3.64 µM (inactive) | 1.04 µM (active) | 4.04 µM (inactive) | 1.03 µM (active) | 2.88 µM (inactive) | 7.98 µM (inactive) | – | – | 0.879 µM (active) | – | 1.15 µM (inactive) | – | – | 0.938 µM (active) | – | 0.46 µM (active)
13 | N#CC1N(C(=O)c2ccc(F)cc2)c2ccccc2N1C(=O)c1ccc(F)cc1 | 34.4 µM (inactive) | 37.6 µM (inactive) | 21.8 µM (inactive) | 39.7 µM (inactive) | 31.1 µM (inactive) | 77.8 µM (inactive) | > 100 µM (inactive) | > 100 µM (inactive) | > 100 µM (inactive) | 18.5 µM (inactive) | 32.9 µM (inactive) | 71.6 µM (inactive) | > 100 µM (inactive) | 48.5 µM (inactive) | 40.3 µM (inactive) | 26.7 µM (inactive) | 68.1 µM (inactive) | 19.9 µM (inactive) | 46.1 µM (inactive) | –
14 | CC1(C)OC2CN(C(=O)OCc3ccccc3)C(CO)C2O1 (centres undefined) | > 100 µM (inactive) | > 100 µM (inactive) | > 100 µM (inactive) | > 100 µM (inactive) | > 100 µM (inactive) | > 100 µM (inactive) | > 100 µM (inactive) | > 100 µM (inactive) | > 100 µM (inactive) | > 100 µM (inactive) | > 100 µM (inactive) | > 100 µM (inactive) | > 100 µM (inactive) | > 100 µM (inactive) | > 100 µM (inactive) | > 100 µM (inactive) | > 100 µM (inactive) | > 100 µM (inactive) | > 100 µM (inactive) | –
15 | CSCCC(N)C(=O)NCCNc1ccc(NCCNC(=O)C(N)CCSC)c2c1C(=O)c1ccccc1C2=O (centres undefined) | 0.199 µM (active) | 1.23 µM (inactive) | 1.16 µM (inactive) | 0.716 µM (active) | 1.08 µM (active) | 0.374 µM (active) | 1.72 µM (inactive) | 0.579 µM (active) | 0.783 µM (active) | 1.1 µM (active) | 0.798 µM (active) | 1.91 µM (inactive) | 2.62 µM (inactive) | 1.69 µM (inactive) | 0.746 µM (active) | 2.21 µM (inactive) | 1.02 µM (active) | 3.03 µM (inactive) | 1.86 µM (inactive) | –
